Some test systems named below: SK-MEL-2 melanoma; HCC-2998 colon; COLO 205 colon; NCI-H522 lung; SNB-19 CNS; K-562 leukemia; SNB-75 CNS; SN12C renal; T-47D breast; SF-539 CNS.
What all share (assay): DTP human tumour cell line panel, 48 h

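Five concentrations, 48 hours, 96-well plates. Abbreviation: GI50, concentration required for 50% inhibition of growth. TGI: total growth inhibition.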

As a reminder, the TGI is the concentration giving total growth inhibition. High values mean less potent growth arrest, low ones more potent growth arrest. Regarding `COc1cc(C2c3cc4c(cc3[C@H](NC(=O)c3cccs3)C3COC(=O)[C@H]23)OCO4)cc(OC)c1OC` (stereo partly specified), the TGI was > 100 µM with SK-MEL-2 melanoma; 13.2 µM in the experiment with HCC-2998 colon; 0.0308 µM in the experiment with COLO 205 colon; 0.0213 µM in the experiment on NCI-H522 lung; > 100 µM in the experiment with SNB-19 CNS; > 37.8 µM with K-562 leukemia. Further, the TGI in the experiment with SNB-75 CNS is > 100 µM; in the experiment on SN12C renal it was 19.5 µM; in the experiment on T-47D breast it was > 100 µM; in the experiment on SF-539 CNS it was < 0.0141 µM.

Usually GI50 stands for the concentration at which growth is held to half of that of the control. On to `C[As](C)Sc1ccnc(S[As](C)C)n1`, for which the GI50 with HCC-2998 colon is 3.02 µM; with COLO 205 colon, 1.53 µM; in the experiment with NCI-H522 lung, 0.918 µM; with SNB-19 CNS it was 14.7 µM; in the experiment on K-562 leukemia it was 1.06 µM; in the experiment on SNB-75 CNS it was 12.7 µM. The GI50 in the experiment with SN12C renal is 3.41 µM; in the experiment on T-47D breast, 22.9 µM; in the experiment on SF-539 CNS it was 2.77 µM. For the same compound, the TGI was 10.5 µM with HCC-2998 colon; > 39.3 µM in the experiment with COLO 205 colon; 27.8 µM with NCI-H522 lung; > 56.2 µM with SNB-19 CNS; > 100 µM with SNB-75 CNS; 15.8 µM with SN12C renal. Moreover, the values for the TGI in the experiment with T-47D breast and in the experiment on SF-539 CNS were > 100 µM and > 34.8 µM, respectively.

On to `O=C(O)c1cc(N/C=C2\C(=O)c3ccccc3OC2O)ccc1O` (stereo unspecified), for which the GI50 in the experiment with SK-MEL-2 melanoma was 30.6 µg/mL; in the experiment on HCC-2998 colon, 27.4 µg/mL; in the experiment on COLO 205 colon, 30.6 µg/mL; with NCI-H522 lung, 34.3 µg/mL; in the experiment with SNB-19 CNS, 19.9 µg/mL; in the experiment on K-562 leukemia, 13.3 µg/mL. Also, the GI50 in the experiment with SNB-75 CNS was 25.2 µg/mL; in the experiment with SN12C renal, 25.5 µg/mL; in the experiment on T-47D breast it was 5.34 µg/mL; in the experiment with SF-539 CNS it was 16.7 µg/mL. The TGI with SK-MEL-2 melanoma was 68.7 µg/mL; in the experiment on HCC-2998 colon, 50.2 µg/mL; in the experiment with COLO 205 colon, 77.9 µg/mL; in the experiment on NCI-H522 lung it was 72.7 µg/mL; with SNB-19 CNS it was 67.5 µg/mL; with K-562 leukemia it was 72.1 µg/mL. Besides, the TGI with SNB-75 CNS was found to be 129 µg/mL; with SN12C renal, 97.3 µg/mL; in the experiment with T-47D breast, 46.2 µg/mL; in the experiment with SF-539 CNS, 43.9 µg/mL.

For the compound `COc1ccc(Nc2c3c4c(cccc4[nH]c2=O)C(=O)c2ccccc2-3)cc1`, the 50% growth inhibitory concentration (GI50) in the experiment on SK-MEL-2 melanoma is 0.048 µM; with HCC-2998 colon, 0.0221 µM; in the experiment on COLO 205 colon, 0.0191 µM; in the experiment with NCI-H522 lung it was < 0.0175 µM; in the experiment with SNB-19 CNS, 0.684 µM; with SNB-75 CNS, 0.0278 µM. The GI50 in the experiment on SN12C renal is 0.0544 µM; in the experiment with T-47D breast it was 38.4 µM; with SF-539 CNS, 0.0206 µM. In addition, the TGI in the experiment with SK-MEL-2 melanoma was > 100 µM; in the experiment on HCC-2998 colon, 0.0482 µM; in the experiment on COLO 205 colon, 0.0446 µM; in the experiment on SNB-19 CNS, > 100 µM; in the experiment with SNB-75 CNS, > 72.1 µM; in the experiment on SN12C renal, > 100 µM. The TGI in the experiment with T-47D breast is > 100 µM; in the experiment with SF-539 CNS it was 0.0687 µM.

As for `O=C1Nc2cc(Cl)ccc2Oc2cc(Oc3ccccc3)ccc21`, the GI50 is 4.99 µM in the experiment on SK-MEL-2 melanoma; 8.8 µM in the experiment with HCC-2998 colon; 5.3 µM with COLO 205 colon; 3.51 µM in the experiment on NCI-H522 lung; 10.5 µM in the experiment with SNB-19 CNS; 1.49 µM in the experiment on SNB-75 CNS. The GI50 is 5.52 µM in the experiment on SN12C renal, 4.79 µM in the experiment on T-47D breast and 8.53 µM with SF-539 CNS. Moreover, the TGI in the experiment with SK-MEL-2 melanoma is 35.7 µM; in the experiment on HCC-2998 colon, > 100 µM; in the experiment with COLO 205 colon it was 19.9 µM; in the experiment with NCI-H522 lung, > 100 µM; in the experiment with SNB-19 CNS, 49.2 µM; in the experiment with SNB-75 CNS, 20.1 µM. Besides, the TGI with SN12C renal came to 71.1 µM; with T-47D breast, 36.8 µM; with SF-539 CNS, 40 µM.

Take `COc1ccc(-c2cn(-c3ccc(Cl)cc3)c(=S)[nH]2)cc1OC`: the GI50 is > 100 µM in the experiment on SK-MEL-2 melanoma; 56.2 µM in the experiment on HCC-2998 colon; 5.61 µM in the experiment on COLO 205 colon; 21.5 µM with NCI-H522 lung; > 100 µM in the experiment on K-562 leukemia; 16.4 µM in the experiment with SNB-75 CNS. Besides, the GI50 in the experiment on SN12C renal is 7.52 µM; in the experiment on T-47D breast it was 6.09 µM; in the experiment with SF-539 CNS, 29.9 µM. The TGI in the experiment with SK-MEL-2 melanoma was > 100 µM; in the experiment on HCC-2998 colon, > 100 µM; in the experiment with COLO 205 colon it was > 100 µM; with NCI-H522 lung it was > 100 µM; in the experiment on K-562 leukemia, > 100 µM; in the experiment on SNB-75 CNS it was 60.3 µM. Moreover, the TGI in the experiment with SN12C renal, in the experiment on T-47D breast and in the experiment with SF-539 CNS was > 100 µM in each case.

For `O=C1CSC(=S)N1c1ccc(F)cc1F`, the TGI in the experiment with SK-MEL-2 melanoma was > 100 µM; in the experiment with HCC-2998 colon, > 100 µM; in the experiment on COLO 205 colon, > 100 µM; with NCI-H522 lung, 47.3 µM; with SNB-19 CNS, > 100 µM; in the experiment with SNB-75 CNS, > 100 µM. Further, the TGI in the experiment with SN12C renal, in the experiment with T-47D breast and in the experiment with SF-539 CNS was > 100 µM throughout.

As to `COc1ccc2c(CC(=O)O)cc(=O)oc2c1`, the TGI in the experiment on HCC-2998 colon, with COLO 205 colon, in the experiment with NCI-H522 lung, in the experiment with SNB-19 CNS, in the experiment on K-562 leukemia and in the experiment on SN12C renal was > 100 µM throughout. The TGI with T-47D breast and in the experiment with SF-539 CNS was > 100 µM throughout.

As for `CN(C)CCCNC(=O)c1cc(NC(=O)CCNC(=O)c2ccc3c(c2)C(=O)c2ccccc2C3=O)cn1C`, the GI50 was > 100 µM with SK-MEL-2 melanoma; 52.7 µM in the experiment with HCC-2998 colon; 33.9 µM in the experiment with COLO 205 colon; > 100 µM in the experiment with NCI-H522 lung; > 100 µM with SNB-19 CNS; > 100 µM in the experiment on K-562 leukemia. In addition, the values for the GI50 in the experiment with SN12C renal, in the experiment with T-47D breast and with SF-539 CNS were > 100 µM, 32.5 µM and > 100 µM, respectively. Further, the TGI with SK-MEL-2 melanoma, with HCC-2998 colon, in the experiment with COLO 205 colon, in the experiment on NCI-H522 lung, in the experiment on SNB-19 CNS and with K-562 leukemia was > 100 µM each time. Moreover, the TGI with SN12C renal was > 100 µM; with T-47D breast, 75.3 µM; with SF-539 CNS, > 100 µM.

Regarding `Cc1cc(Cl)ccc1NC(=O)/C(Cl)=C(/Cl)C(=O)O`, the TGI in the experiment with HCC-2998 colon was 39.3 µM; in the experiment on COLO 205 colon it was 78 µM; with NCI-H522 lung it was 32.7 µM; in the experiment on SNB-19 CNS, > 100 µM; in the experiment on K-562 leukemia, > 100 µM; in the experiment with SNB-75 CNS, > 100 µM. The results for the TGI in the experiment on SN12C renal, in the experiment on T-47D breast and with SF-539 CNS were 35 µM, 57.2 µM and 50.9 µM, respectively.

`COc1c(OC(C)=O)c(OC(C)=O)cc2c1-c1ccc(OC)c(=O)cc1C(NC(C)=O)CC2` (stereo unspecified): the TGI is 9.38 µM with SK-MEL-2 melanoma; 24.8 µM with HCC-2998 colon; 0.133 µM in the experiment on COLO 205 colon; 0.0192 µM in the experiment on NCI-H522 lung; > 95.5 µM in the experiment with SNB-19 CNS; > 100 µM in the experiment on K-562 leukemia. In addition, the TGI in the experiment with SN12C renal is > 100 µM; in the experiment on T-47D breast it was > 100 µM; in the experiment with SF-539 CNS, 0.173 µM.

In the case of `CCOC(=O)C1c2[nH]c3ccccc3c2CCN1C(=O)c1ccco1` (stereo unspecified), the TGI in the experiment with HCC-2998 colon, in the experiment with COLO 205 colon, in the experiment on SNB-19 CNS, in the experiment on K-562 leukemia, with SNB-75 CNS and with SN12C renal was > 10 µM throughout. Moreover, the TGI in the experiment on T-47D breast and in the experiment on SF-539 CNS was > 10 µM throughout.

For the compound `COC(=O)NNc1c([N+](=O)[O-])cnn(-c2ccccc2)c1=O`, the TGI with SK-MEL-2 melanoma was 11.5 µM; with HCC-2998 colon, 9.72 µM; in the experiment on COLO 205 colon, 6.02 µM; with NCI-H522 lung, 2.6 µM; in the experiment on SNB-19 CNS, 23.2 µM; in the experiment with SNB-75 CNS, 19.5 µM. For the same compound, the results for the TGI with SN12C renal, in the experiment on T-47D breast and with SF-539 CNS were 3.49 µM, 4.54 µM and 8.22 µM, respectively.

Take `CCOc1cc(C=O)c2c(ccc3ccc(OC)c(OC)c32)c1OC`: the TGI with SK-MEL-2 melanoma, with HCC-2998 colon, in the experiment on COLO 205 colon, in the experiment with NCI-H522 lung, with SNB-19 CNS and in the experiment on K-562 leukemia was > 100 µM in each case. Moreover, the TGI in the experiment on SNB-75 CNS, in the experiment on SN12C renal and in the experiment with T-47D breast was > 100 µM throughout.

With `COC1OCC(OS(=O)(=O)c2ccc(C)cc2)C(OC(=O)c2ccccc2)C1OC(=O)c1ccccc1` (stereo unspecified), the GI50 in the experiment with SK-MEL-2 melanoma is 5.72 µM; in the experiment on HCC-2998 colon, > 100 µM; with COLO 205 colon it was 4.14 µM; in the experiment with NCI-H522 lung, 1.56 µM; in the experiment on SNB-19 CNS, 9.97 µM; in the experiment on K-562 leukemia, 3.16 µM. The GI50 in the experiment on SNB-75 CNS is 1.78 µM; in the experiment with T-47D breast, 3.11 µM; with SF-539 CNS it was 5 µM. Also, the TGI was > 100 µM in the experiment with SK-MEL-2 melanoma; > 100 µM in the experiment with HCC-2998 colon; > 100 µM with COLO 205 colon; 7.09 µM with NCI-H522 lung; > 100 µM in the experiment on SNB-19 CNS; > 100 µM in the experiment on K-562 leukemia. Also, the TGI is 4.65 µM in the experiment with SNB-75 CNS, > 100 µM in the experiment on T-47D breast and > 100 µM with SF-539 CNS.

Consider `O=C(Nc1ccc(Cl)c(Cl)c1)C(=O)C(C1OC(=O)c2ccccc21)[N+](=O)[O-]` (stereo unspecified), for which the TGI in the experiment on SK-MEL-2 melanoma, in the experiment with HCC-2998 colon, with COLO 205 colon, with NCI-H522 lung, with SNB-19 CNS and in the experiment with SNB-75 CNS was > 100 µM each time. Also, the TGI with SN12C renal, in the experiment on T-47D breast and with SF-539 CNS was > 100 µM throughout.

(Values after PubChem BioAssay (NCI).)
